Data: US6355799B1, “Substituted benzene compounds, process for their preparation, and herbicidal and defoliant compositions containing them” (ISK Americas Incorporated, priority 1997, dated 2002)

Columns and labels:
Assay type in all cases: in vivo
[1] = tested on: common ragweed (Ambrosia artemisizfolia L., AMBEL); assay: Post-emerge test, greenhouse herbicide activity screening; conditions: post-emerge, 14 days after application, rating scale 0-100
In short: (§1)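 Fourteen days after spraying, crop and weed injury was graded visually from 0, no effect, to 100, every plant dead. Test substances were dissolved in acetone and applied at 15–1000 g ai/ha with a flat-fan nozzle. Application was either pre-emergence, one day after sowing, or post-emergence at the 2–3 leaf stage.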

[2] = tested on: ivyleaf morningglory (Ipomoea hederacea, IPOHE); assay: as above; conditions: post-emerge, 14 days after application, rating scale 0-100
In short: as §1

[3] = tested on: velvetleaf (Abutilon theophrasti, ABUTH); assay: as above; conditions: post-emerge, 14 days after application, rating scale 0-100
In short: as §1

[4] = tested on: barnyardgrass (Echinochloa crus-galli, ECHCG); assay: as above; conditions: post-emerge, 14 days after application, rating scale 0-100
In short: as §1

[5] = tested on: sicklepod (Cassia obtusifolia, CASOB); assay: as above; conditions: post-emerge, 14 days after application, rating scale 0-100
In short: as §1

[6] = tested on: redroot pigweed (Amaranthus retroflexus, AMARE); assay: as above; conditions: post-emerge, 14 days after application, rating scale 0-100
In short: as §1

[7] = tested on: lambsquarters (Chenopodium album, CHEAL); assay: as above; conditions: post-emerge, 14 days after application, rating scale 0-100
In short: as §1

[8] = tested on: johnsongrass (Sorghum halepense, SORHA); assay: as above; conditions: post-emerge, 14 days after application, rating scale 0-100
In short: as §1

[9] = tested on: green foxtail (Setaria viridis, SETVI); assay: as above; conditions: post-emerge, 14 days after application, rating scale 0-100
In short: as §1

[10] = tested on: large crabgrass (Digitaria sanguinalis, DIGSA); assay: as above; conditions: post-emerge, 14 days after application, rating scale 0-100
In short: as §1

[11] = tested on: field corn (Zea mays L., var. Dekalb 535, CORN); assay: Pre-emerge test, crop safety; conditions: rated 14 days after application, 0 = no damage, 100 = complete death
In short: (§2)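 Applied at 15–1000 g ai/ha from acetone in 187 l/ha spray volume. Post-emergence applications included 0.25% v/v non-ionic surfactant and reached plants sown 8–21 days before. Pre-emergence applications were incorporated by surface watering. Efficacy or crop damage was rated on a 0–100 scale after 14 days.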

[12] = tested on: upland rice (Oryza sp., var. Tebonnet, RICE); assay: Pre-emerge test, crop safety; conditions: rated 14 days after application, 0 = no damage, 100 = complete death
In short: as §2

[13] = tested on: field corn (Zea mays L., var. Dekalb 535, CORN); assay: Post-emerge test, crop safety; conditions: post-emerge, 14 days after application, rating scale 0-100
In short: (§3)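 Rating: 0–100 visual injury, 14 DAA. Application: acetone, 187 l/ha, 15–1000 g ai/ha, flat-fan track sprayer with nozzle 40–45 cm above soil or canopy. Post-emerge runs used 0.25% v/v surfactant on 2–3 leaf plants.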

[14] = tested on: upland rice (Oryza sp., var. Tebonnet, RICE); assay: Post-emerge test, crop safety; conditions: post-emerge, 14 days after application, rating scale 0-100
In short: as §3

[15] = tested on: redroot pigweed (Amaranthus retroflexus, AMARE); assay: Pre-emerge test, greenhouse herbicide activity screening; conditions: rated 14 days after application, 0 = no damage, 100 = complete death
In short: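 Herbicidal damage is scored 0 (none) to 100 (complete plant death) two weeks after a simulated field spray. Rates span 15–1000 g ai/ha, delivered in acetone at 187 l/ha. For post-emergence treatments, plants have 2–3 leaves and the spray carries 0.25% v/v non-ionic surfactant.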

[16] = tested on: common ragweed (Ambrosia artemisizfolia L., AMBEL); assay: as above; conditions: rated 14 days after application, 0 = no damage, 100 = complete death
In short: (§4)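 Compounds in acetone were track-sprayed at 15–1000 g ai/ha: pre-emergence onto soil sown the previous day, then top-watered to incorporate and later bottom-watered; post-emergence onto 2–3 leaf plants with 0.25% v/v surfactant, bottom-watered only. Ratings on a 0–100 phytotoxicity scale were taken at day 14.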

[17] = tested on: ivyleaf morningglory (Ipomoea hederacea, IPOHE); assay: as above; conditions: rated 14 days after application, 0 = no damage, 100 = complete death
In short: as §4

[18] = tested on: velvetleaf (Abutilon theophrasti, ABUTH); assay: as above; conditions: rated 14 days after application, 0 = no damage, 100 = complete death
In short: as §4

[19] = tested on: barnyardgrass (Echinochloa crus-galli, ECHCG); assay: as above; conditions: rated 14 days after application, 0 = no damage, 100 = complete death
In short: as §4

[20] = tested on: sicklepod (Cassia obtusifolia, CASOB); assay: as above; conditions: rated 14 days after application, 0 = no damage, 100 = complete death
In short: as §4

[21] = tested on: lambsquarters (Chenopodium album, CHEAL); assay: as above; conditions: rated 14 days after application, 0 = no damage, 100 = complete death
In short: as §4

[22] = tested on: johnsongrass (Sorghum halepense, SORHA); assay: as above; conditions: rated 14 days after application, 0 = no damage, 100 = complete death
In short: as §4

[23] = tested on: green foxtail (Setaria viridis, SETVI); assay: as above; conditions: rated 14 days after application, 0 = no damage, 100 = complete death
In short: as §4

[24] = tested on: large crabgrass (Digitaria sanguinalis, DIGSA); assay: as above; conditions: rated 14 days after application, 0 = no damage, 100 = complete death
In short: as §4

COc1c(Cl)cc(F)c(-n2c(=O)cc(C(F)(F)F)n(C)c2=O)c1NC(=O)c1ccc(C#N)cc1 [2-67]
0: phytotoxicity rating ECHCG ([4]; 63 g ai/ha) | phytotoxicity rating SORHA ([8]; 63 g ai/ha) | phytotoxicity rating DIGSA ([10]; 63 g ai/ha)
50: Pre-emerge Herbicidal Activity, phytotoxicity rating (0-100), ECHCG ([19]; 63 g ai/ha)
90: Pre-emerge phytotoxicity rating (0-100), crop damage, CORN ([11]; 63 g ai/ha) | Pre-emerge phytotoxicity rating (0-100), crop damage, RICE ([12]; 63 g ai/ha) | Pre-emerge phytotoxicity rating (0-100), crop damage, RICE ([12]; 250 g ai/ha)
40: phytotoxicity rating ECHCG ([4]; 250 g ai/ha) | phytotoxicity rating DIGSA ([10]; 250 g ai/ha)
100: phytotoxicity rating AMBEL ([1]; 63 g ai/ha) | phytotoxicity rating AMBEL ([1]; 250 g ai/ha) | phytotoxicity rating IPOHE ([2]; 250 g ai/ha) | phytotoxicity rating ABUTH ([3]; 63 g ai/ha) | phytotoxicity rating ABUTH ([3]; 250 g ai/ha) | phytotoxicity rating CASOB ([5]; 63 g ai/ha) | phytotoxicity rating CASOB ([5]; 250 g ai/ha) | phytotoxicity rating AMARE ([6]; 63 g ai/ha) | phytotoxicity rating AMARE ([6]; 250 g ai/ha) | phytotoxicity rating CHEAL ([7]; 63 g ai/ha) | phytotoxicity rating CHEAL ([7]; 250 g ai/ha) | Pre-emerge Herbicidal Activity, phytotoxicity rating (0-100), AMARE ([15]; 63 g ai/ha) | Pre-emerge Herbicidal Activity, phytotoxicity rating (0-100), AMARE ([15]; 250 g ai/ha) | Pre-emerge Herbicidal Activity, phytotoxicity rating (0-100), AMBEL ([16]; 63 g ai/ha) | Pre-emerge Herbicidal Activity, phytotoxicity rating (0-100), AMBEL ([16]; 250 g ai/ha) | Pre-emerge Herbicidal Activity, phytotoxicity rating (0-100), IPOHE ([17]; 63 g ai/ha) | Pre-emerge Herbicidal Activity, phytotoxicity rating (0-100), IPOHE ([17]; 250 g ai/ha) | Pre-emerge Herbicidal Activity, phytotoxicity rating (0-100), ABUTH ([18]; 63 g ai/ha) | Pre-emerge Herbicidal Activity, phytotoxicity rating (0-100), ABUTH ([18]; 250 g ai/ha) | Pre-emerge Herbicidal Activity, phytotoxicity rating (0-100), CASOB ([20]; 63 g ai/ha) | Pre-emerge Herbicidal Activity, phytotoxicity rating (0-100), CASOB ([20]; 250 g ai/ha) | Pre-emerge Herbicidal Activity, phytotoxicity rating (0-100), CHEAL ([21]; 63 g ai/ha) | Pre-emerge Herbicidal Activity, phytotoxicity rating (0-100), CHEAL ([21]; 250 g ai/ha) | Pre-emerge Herbicidal Activity, phytotoxicity rating (0-100), SORHA ([22]; 250 g ai/ha) | Pre-emerge Herbicidal Activity, phytotoxicity rating (0-100), SETVI ([23]; 63 g ai/ha) | Pre-emerge Herbicidal Activity, phytotoxicity rating (0-100), SETVI ([23]; 250 g ai/ha) | Pre-emerge Herbicidal Activity, phytotoxicity rating (0-100), DIGSA ([24]; 63 g ai/ha) | Pre-emerge Herbicidal Activity, phytotoxicity rating (0-100), DIGSA ([24]; 250 g ai/ha)
20: phytotoxicity rating SETVI ([9]; 63 g ai/ha) | phytotoxicity rating CORN ([13]; 63 g ai/ha)
99: phytotoxicity rating IPOHE ([2]; 63 g ai/ha) | Pre-emerge phytotoxicity rating (0-100), crop damage, CORN ([11]; 250 g ai/ha)
95: phytotoxicity rating CORN ([13]; 250 g ai/ha) | Pre-emerge Herbicidal Activity, phytotoxicity rating (0-100), ECHCG ([19]; 250 g ai/ha)
70: phytotoxicity rating RICE ([14]; 63 g ai/ha)
30: phytotoxicity rating SETVI ([9]; 250 g ai/ha)
80: phytotoxicity rating SORHA ([8]; 250 g ai/ha) | phytotoxicity rating RICE ([14]; 250 g ai/ha) | Pre-emerge Herbicidal Activity, phytotoxicity rating (0-100), SORHA ([22]; 63 g ai/ha)

COc1c(Cl)cc(F)c(-n2c(=O)cc(C(F)(F)F)n(C)c2=O)c1N(C(=O)c1ccc([N+](=O)[O-])cc1)C(=O)c1ccc([N+](=O)[O-])cc1 [2-69]
95: Pre-emerge Herbicidal Activity, phytotoxicity rating (0-100), SETVI ([23]; 250 g ai/ha)
30: phytotoxicity rating AMBEL ([1]; 250 g ai/ha) | phytotoxicity rating CASOB ([5]; 250 g ai/ha) | Pre-emerge phytotoxicity rating (0-100), crop damage, RICE ([12]; 250 g ai/ha) | Pre-emerge Herbicidal Activity, phytotoxicity rating (0-100), SORHA ([22]; 250 g ai/ha)
40: phytotoxicity rating AMBEL ([1]; 63 g ai/ha) | phytotoxicity rating IPOHE ([2]; 250 g ai/ha) | phytotoxicity rating AMARE ([6]; 63 g ai/ha) | Pre-emerge Herbicidal Activity, phytotoxicity rating (0-100), IPOHE ([17]; 250 g ai/ha)
0: phytotoxicity rating ECHCG ([4]; 63 g ai/ha) | phytotoxicity rating ECHCG ([4]; 250 g ai/ha) | phytotoxicity rating SORHA ([8]; 63 g ai/ha) | phytotoxicity rating SORHA ([8]; 250 g ai/ha) | phytotoxicity rating SETVI ([9]; 63 g ai/ha) | phytotoxicity rating SETVI ([9]; 250 g ai/ha) | phytotoxicity rating DIGSA ([10]; 63 g ai/ha) | phytotoxicity rating DIGSA ([10]; 250 g ai/ha) | Pre-emerge phytotoxicity rating (0-100), crop damage, CORN ([11]; 63 g ai/ha) | phytotoxicity rating CORN ([13]; 63 g ai/ha) | phytotoxicity rating CORN ([13]; 250 g ai/ha) | phytotoxicity rating RICE ([14]; 63 g ai/ha) | phytotoxicity rating RICE ([14]; 250 g ai/ha) | Pre-emerge Herbicidal Activity, phytotoxicity rating (0-100), IPOHE ([17]; 63 g ai/ha) | Pre-emerge Herbicidal Activity, phytotoxicity rating (0-100), ECHCG ([19]; 63 g ai/ha) | Pre-emerge Herbicidal Activity, phytotoxicity rating (0-100), CASOB ([20]; 63 g ai/ha) | Pre-emerge Herbicidal Activity, phytotoxicity rating (0-100), SORHA ([22]; 63 g ai/ha)
50: phytotoxicity rating IPOHE ([2]; 63 g ai/ha) | phytotoxicity rating AMARE ([6]; 250 g ai/ha) | phytotoxicity rating CHEAL ([7]; 63 g ai/ha) | Pre-emerge Herbicidal Activity, phytotoxicity rating (0-100), AMBEL ([16]; 63 g ai/ha)
100: phytotoxicity rating ABUTH ([3]; 63 g ai/ha) | phytotoxicity rating ABUTH ([3]; 250 g ai/ha) | Pre-emerge Herbicidal Activity, phytotoxicity rating (0-100), AMARE ([15]; 250 g ai/ha) | Pre-emerge Herbicidal Activity, phytotoxicity rating (0-100), ABUTH ([18]; 63 g ai/ha) | Pre-emerge Herbicidal Activity, phytotoxicity rating (0-100), ABUTH ([18]; 250 g ai/ha) | Pre-emerge Herbicidal Activity, phytotoxicity rating (0-100), CHEAL ([21]; 63 g ai/ha) | Pre-emerge Herbicidal Activity, phytotoxicity rating (0-100), CHEAL ([21]; 250 g ai/ha)
20: Pre-emerge phytotoxicity rating (0-100), crop damage, RICE ([12]; 63 g ai/ha) | Pre-emerge Herbicidal Activity, phytotoxicity rating (0-100), DIGSA ([24]; 63 g ai/ha)
10: phytotoxicity rating CASOB ([5]; 63 g ai/ha) | Pre-emerge phytotoxicity rating (0-100), crop damage, CORN ([11]; 250 g ai/ha) | Pre-emerge Herbicidal Activity, phytotoxicity rating (0-100), ECHCG ([19]; 250 g ai/ha)
60: phytotoxicity rating CHEAL ([7]; 250 g ai/ha) | Pre-emerge Herbicidal Activity, phytotoxicity rating (0-100), AMBEL ([16]; 250 g ai/ha)
70: Pre-emerge Herbicidal Activity, phytotoxicity rating (0-100), SETVI ([23]; 63 g ai/ha)
90: Pre-emerge Herbicidal Activity, phytotoxicity rating (0-100), AMARE ([15]; 63 g ai/ha) | Pre-emerge Herbicidal Activity, phytotoxicity rating (0-100), DIGSA ([24]; 250 g ai/ha)
80: Pre-emerge Herbicidal Activity, phytotoxicity rating (0-100), CASOB ([20]; 250 g ai/ha)
